Counter-ions that a name gives are not always drawn.
Tests used:
[1] = Test for a moisturizability (weight change after standing at constant temperature and humidity); assay type: physicochemical; conditions: dried sample, 20°C, humidity 75% for 7 days, then 20°C, humidity 45% for 7 days, evaluated from change in weight
Procedure: Approximately one gram of a sample was taken in a weighing bottle, and dried with diphosphorus pentoxide under reduced pressure for 4 hours. The resulting sample was used in the following test. The weight was accurately measured, and the sample was allowed to stand in a constant temperature and constant humidity box having a temperature of 20°C and a humidity of 75% for 7 days. Subsequently, the sample was moved in a constant temperature and constant humidity box having a temperature of 20°C and a humidity of 45%, and allowed to stand for 7 days. The moisturizability was evaluated from the change in weight. As a control sample, glycerin was used. […]

rat = conditions: p. o.; cited from earlier work

| Structure (SMILES) | Water holding capacity (%) ([1]; sodium salt) | LD50 (rat) | Water holding capacity (%) [1] |
| --- | --- | --- | --- |
| N[C@@H](CCC(=O)NCCS(=O)(=O)O)C(=O)O [Glutaurine sodium salt, glutaurine sodium salt] | 19.45% |  |  |
| N[C@@H](CCC(=O)NCCS(=O)(=O)O)C(=O)O [Glutaurine, glutaurine] |  | > 1000 mg/kg | 17.12% |
| OCC(O)CO [Glycerin, glycerin, reference compound] |  |  | 19.88% |

Reference: patent EP0925782A2, “Cosmetics” (SOGO PHARMACEUTICAL COMPANY LIMITED, priority 1997, dated 1999)
